Assay results published in US5273986A, “Cycloalkylthiazoles” (Hoffmann-La Roche Inc., priority 1992, dated 1993).
Where two headings read alike, the source gives them in different places.

How the values were obtained:
LTD4 receptor = target: T1, LTD4 receptor (Cavia porcellus, UniProt Q2NNR5); test: LTD4 receptor ligand binding assay (inhibition of [3H]LTD4 specific binding, guinea pig lung membranes); conditions: 20° C., 30 min
T1 construct: A lung homogenate was prepared from guinea pig lung membranes; from tissue; host or cells: guinea pig lung membranes
T1 sequence (Q2NNR5 1-340): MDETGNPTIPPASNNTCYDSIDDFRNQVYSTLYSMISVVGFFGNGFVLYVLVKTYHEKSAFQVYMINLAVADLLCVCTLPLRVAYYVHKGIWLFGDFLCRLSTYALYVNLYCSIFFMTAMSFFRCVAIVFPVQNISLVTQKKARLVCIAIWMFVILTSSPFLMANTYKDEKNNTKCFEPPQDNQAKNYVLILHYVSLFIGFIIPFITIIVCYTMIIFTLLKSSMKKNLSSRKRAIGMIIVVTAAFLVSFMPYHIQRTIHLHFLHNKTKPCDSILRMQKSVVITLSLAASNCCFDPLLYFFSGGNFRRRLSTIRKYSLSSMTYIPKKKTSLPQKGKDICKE
Protocol: A lung homogenate was prepared from guinea pig lung membranes and was resuspended in buffer containing 10 mM Tris.HCl (pH 7.5) (Hogaboom et al., Hogaboom, G. K., et al: Peptidoleukotrienes: distinct receptors for leukotriene C4 and D4 in the guinea pig lung. Biochem. Biophys. Res. Commun. 116: 1136-1143, 1983). Optimum assay conditions were determined with an assay mixture containing: 10 mM Tris.HCl (pH 7.5); 0.1% bovine serum albumin (BSA); 1 mM glycine; 1 mM cysteine; 3.5 nM [^3 H]LTD4 and the membrane preparation ([…] protein) in a final volume of […]. The incubation was carried out at 20° C. for 30 minutes. At 20° C., binding increased linearly with protein concentration, reached equilibrium in 20 minutes, was saturable, and was reversible upon addition of 1 mM unlabelled LTD4. Separation of bound from free [^3 H]LTD4 as performed by rapid filtration on GF/C glass fiber filters (Whatman International Ltd., Maidstone, England) and washing with two 4-ml aliquots of Tyrode solution (0.9 g/100 ml NaCl; 0.02 g/100 ml KCl; 0.02 g/100 ml CaCl2; 0.01 g/100 ml MgCl2; 0.1 g/100 ml glucose; 0.1 g/100 ml NaHCO3; 0.005 g/100 ml NaH2 PO4) containing 0.1% BSA. Radioactivity remaining on the filters was measured in 10 ml of Aquasol. Specific binding, was defined as that displaced by 1 mM unlabelled LTD4, and was 95% of total binding.
The inhibition of [^3 H]LTD4 specific binding by an antagonist is related to the LTD4 content of that sample by regression analysis from a "standard curve" of the inhibition of [^3 H]LTD4 specific binding by nonlabeled LTD4. The median inhibitory concentration (IC50 value) was determined by linear regression of log concentration-response curves generated by at least 3 concentrations that caused statistically significant inhibition between 10 and 90%. Results are expressed as mean±S. E. M. (standard error of the mean) of n independent experiments (separate receptor batches) conducted in duplicates.

[1] = system: LTD4-induced bronchoconstriction; test: Antagonism of LTD4-induced bronchoconstriction in guinea pigs; type: in vivo, guinea pig (male, Hartley strain); conditions: for ED50 / inhibition in vivo at 1 mg/kg: Cavia porcellus; for inhibition in vivo at 1 mg/kg: read-out: percent inhibition at 1 mg/kg p.o., LTD4-induced bronchoconstriction (ID50 not determined)
Protocol: Male guinea pigs (Hartley strain, Charles River) weighing 400-600 g were anesthetized with urethane (2 g/kg) intraperitoneally, and a polyethylene cannula was inserted into the jugular vein for intravenous drug administration. Tracheal pressure (cm of H2 O) was recorded from a Statham pressure transducer (P 32 AA). Propranolol was administered 5 minutes prior to challenge with LTD4. Two minutes later spontaneous breathing was arrested with succinylcholine chloride (1.2 mg/kg) administered intravenously, and the animals were ventilated with a Harvard (Model 680) small animal respirator set at 40 breaths/min and a 4.0 cc stroke volume. Control vehicle (DMSO) or test compound was administered through the cannula into the jugular vein 1 minute before the animals were challenged with a maximum constrictory dose of LTD4 ([…] I.V.) given intravenously. The change in tracheal pressure was averaged for control and drug-treated animals and percent inhibition was calculated. For determination of oral activity, animals were dosed with test compound or vehicle (PEG400) two hours prior to challenge with LTD4 ([…], i.v.).
The relative potency of test compounds administered by the intravenous and oral route was determined by administering increasing doses of test compound at a fixed pretreatment time. The median inhibitory dose (ID50 value) was determined by linear regression of log dose-responsecurves generated by at least 3 doses that caused statistically significant inhibition between 10 and 90%. The correlation coefficient for the regression line was always greater than 0.95. For determination of the time-course of inhibition for various compounds, the time between administration of compound and challenge with LTD4 was varied. Durations of action were defined as the time for inhibitory activity to decrease to 50%.

[2] = iv, 1 min, I.V., compound 1 minute before LTD4 challenge, read-out: ID50 I.V., LTD4-induced bronchoconstriction
[3] = po, 2 h, p.o., compound two hours prior to LTD4 challenge, read-out: ID50 p.o., LTD4-induced bronchoconstriction
[4] = po, 2 h, p.o., 1 mg/kg, compound two hours prior to LTD4 challenge

| SMILES | IC50 (LTD4 receptor) [nM] | ED50 [1, 2] [mg/kg] | ED50 [1, 3] [mg/kg] | inhibition in vivo at 1 mg/kg [1, 4] [%] | percent inhibition at 1 mg/kg I.V., LTD4-induced bronchoconstriction (ID50 not determined) ([1]; I.V., 1 mg/kg, compound 1 minute before LTD4 challenge) [%] |
| --- | --- | --- | --- | --- | --- |
| O=C(Cc1ccccc1C(=O)O)Nc1cccc(/C=C/c2nc(C3CC3)cs2)c1 [Example 2, (E)-2-[2-[3-[2-[4-(Cyclopropyl)-2-thiazolyl]ethenyl]phenylamino]-2-oxoethyl]benzoic acid] | 3 | 0.01 | 0.22 |  |  |
| O=C(Cc1ccccc1C(=O)O)Nc1cccc(/C=C/c2nc(C3CCC3)cs2)c1 [Example 3, (E)-2-[2-[3-[2-[4-(Cyclobutyl)-2-thiazolyl]ethenyl]phenylamino]-2-oxoethyl]benzoic acid] | 3 | 0.01 | 0.22 |  |  |
| O=C(O)Cc1ccccc1CC(=O)Nc1cccc(/C=C/c2nc(C3CCC3)cs2)c1 [Example 13, (E)-2-[2-[3-[2-[4-(cyclobutyl)-2-thiazolyl]ethenyl]phenylamino]-2-oxoethyl]benzeneacetic acid] | 1000 | 0.01 | 0.78 |  |  |
| CC(C)c1csc(/C=C/c2cccc(NC(=O)Cc3ccccc3CC(=O)O)c2)n1 [Example 14, (E)-2-[2-[3-[2-[4-(1-Methylethyl)-2-thiazolyl]ethenyl]phenylamino]-2-oxoethyl]benzene acetic acid] | 1000 | 0.05 |  | 41 ± 8 |  |
| CC(C)c1csc(/C=C/c2cccc(NC(=O)Cc3cccc(CC(=O)O)c3)c2)n1 [Example 15, (E)-3-[2-[3-[2-[4-(1-Methylethyl)-2-thiazolyl]ethenyl]phenylamino]-2-oxoethyl]phenylacetic acid] | 1000 |  |  |  | 40 ± 7 |
| CC(C)c1csc(/C=C/c2cc(NC(=O)Cc3ccccc3C(=O)O)ccc2Cl)n1 [Example 17e, (E)-2-[2-[4-Chloro-3-[2-[4-(1-methylethyl)-2-thiazolyl]ethenyl]phenylamino]-2-oxoethyl]benzoic acid] | 900 | 0.28 |  | 26 ± 7 |  |
